Results: patent US5223421A, “Identification of methionine Nα-acetyltransferase” (The General Hospital Corporation, priority 1990, dated 1993)

test system: methionine N^α -acetyltransferase (M-N^α -AT); assay: Relative activity of M-N^α -AT for N^α -acetylation of synthetic peptides; type: biochemical, Saccharomyces cerevisiae; set-up: tested at 50 µM; conditions: Table 7, influence of the penultimate amino terminal residue
Description: (§1) N^α -acetylt[…] was determined as previously described [Lee et al., J. Biol. Chem. 263:14948-14955 (1988)]. Aliquots of the lysate or chromatographic fractions were added to 1.5 ml Eppendorf tubes containing a reaction mixture of 50 mM HEPES, pH 7.4, 150 mM KCl, 1 mM DTT, 25 μM [^3 H] acetyl coenzyme A (0.5 μCi) and 50 μM synthetic peptide with an adjusted final volume of 100 μl. The assay mixture was incubated at 30° C. for 30 min. The reaction was stopped by adding 17 μl of 0.5M acetic acid and chilled in an ice bath. The reaction samples were filtered through SP membrane discs (Cuno) (previously pre-swollen in 0.5M acetic acid), and then washed three times with 1 ml of 0.5M acetic acid on a Millipore 1225 sampling manifold. The partially dried membranes were placed in scintillation cocktail and counted with a Beckman LS 3801 scintillation counter. One unit of activity was defined as the amount of enzyme able to transfer 1 pmol of [^3 H] acetyl group from [^3 H] acetyl coenzyme A to synthetic peptide per min under standard enzyme assay conditions defined above.
(§2) In order to compare the relative specificity and activity of the methionine N^α -acetylt[…] (M-N^α -AT) of the present invention with the specificity and activity of the AAA1 N^α -acetyltransferase (N^α -AT) of Lee, F.-J. S., et al., J. Bacteriol. 171, (1989), U.S. Patent Application of John A. Smith, and Fang-Jen S. Lee, filed Oct. 25, 1989, entitled "ISOLATION OF STRAINS OF SAC[…] ALTERED N^α -ACETYLT[…]" (which references have been incorporated herein by reference) synthetic peptides were prepared. These peptides were assessed for their ability to serve as substrates for the two enzymes. In Table 6, the effect of the amino terminal amino acid on activity is investigated; in Table 7, the effect of the penultimate amino terminal amino acid on activity is investigated.

| Substance | Activity (%) (mean activity ± S.D.) M-N^a -AT |
| --- | --- |
| SAPETQKGVIFYESHGKLEYKDIP (SAPETQKGVIFYESHGKLEYKDIP) | 0 |
| SCPETQKGVIFYESHGKLEYKDIP (SCPETQKGVIFYESHGKLEYKDIP) | 0 |
| SDPETQKGVIFYESHGKLEYKDIP (SDPETQKGVIFYESHGKLEYKDIP) | 0 |
| SEPETQKGVIFYESHGKLEYKDIP (SEPETQKGVIFYESHGKLEYKDIP) | 0 |
| SFPETQKGVIFYESHGKLEYKDIP (SFPETQKGVIFYESHGKLEYKDIP) | 0 |
| SGPETQKGVIFYESHGKLEYKDIP (SGPETQKGVIFYESHGKLEYKDIP) | 0 |
| SHPETQKGVIFYESHGKLEYKDIP (SHPETQKGVIFYESHGKLEYKDIP) | 0 |
| SKPETQKGVIFYESHGKLEYKDIP (SKPETQKGVIFYESHGKLEYKDIP) | 0 |
| SLPETQKGVIFYESHGKLEYKDIP (SLPETQKGVIFYESHGKLEYKDIP) | 0 |
| SMPETQKGVIFYESHGKLEYKDIP (SMPETQKGVIFYESHGKLEYKDIP) | 0 |
| SNPETQKGVIFYESHGKLEYKDIP (SNPETQKGVIFYESHGKLEYKDIP) | 0 |
| SPPETQKGVIFYESHGKLEYKDIP (SPPETQKGVIFYESHGKLEYKDIP) | 0 |
| SQPETQKGVIFYESHGKLEYKDIP (SQPETQKGVIFYESHGKLEYKDIP) | 0 |
| SRPETQKGVIFYESHGKLEYKDIP (SRPETQKGVIFYESHGKLEYKDIP) | 0 |
| SSPETQKGVIFYESHGKLEYKDIP (SSPETQKGVIFYESHGKLEYKDIP) | 0 |
| STPETQKGVIFYESHGKLEYKDIP (STPETQKGVIFYESHGKLEYKDIP) | 0 |
| SVPETQKGVIFYESHGKLEYKDIP (SVPETQKGVIFYESHGKLEYKDIP) | 0 |
| SWPETQKGVIFYESHGKLEYKDIP (SWPETQKGVIFYESHGKLEYKDIP) | 0 |
| SYPETQKGVIFYESHGKLEYKDIP (SYPETQKGVIFYESHGKLEYKDIP) | 0 |

molecular target: T1, AAA1 N^α -acetyltransferase (N^α -AT) (Saccharomyces cerevisiae, UniProt P07347+P12945); assay: Relative activity of N^α -AT for N^α -acetylation of synthetic peptides; type: biochemical; conditions: Table 7, influence of the penultimate amino terminal residue
T1 sequence (P12945 2-854 limits assumed): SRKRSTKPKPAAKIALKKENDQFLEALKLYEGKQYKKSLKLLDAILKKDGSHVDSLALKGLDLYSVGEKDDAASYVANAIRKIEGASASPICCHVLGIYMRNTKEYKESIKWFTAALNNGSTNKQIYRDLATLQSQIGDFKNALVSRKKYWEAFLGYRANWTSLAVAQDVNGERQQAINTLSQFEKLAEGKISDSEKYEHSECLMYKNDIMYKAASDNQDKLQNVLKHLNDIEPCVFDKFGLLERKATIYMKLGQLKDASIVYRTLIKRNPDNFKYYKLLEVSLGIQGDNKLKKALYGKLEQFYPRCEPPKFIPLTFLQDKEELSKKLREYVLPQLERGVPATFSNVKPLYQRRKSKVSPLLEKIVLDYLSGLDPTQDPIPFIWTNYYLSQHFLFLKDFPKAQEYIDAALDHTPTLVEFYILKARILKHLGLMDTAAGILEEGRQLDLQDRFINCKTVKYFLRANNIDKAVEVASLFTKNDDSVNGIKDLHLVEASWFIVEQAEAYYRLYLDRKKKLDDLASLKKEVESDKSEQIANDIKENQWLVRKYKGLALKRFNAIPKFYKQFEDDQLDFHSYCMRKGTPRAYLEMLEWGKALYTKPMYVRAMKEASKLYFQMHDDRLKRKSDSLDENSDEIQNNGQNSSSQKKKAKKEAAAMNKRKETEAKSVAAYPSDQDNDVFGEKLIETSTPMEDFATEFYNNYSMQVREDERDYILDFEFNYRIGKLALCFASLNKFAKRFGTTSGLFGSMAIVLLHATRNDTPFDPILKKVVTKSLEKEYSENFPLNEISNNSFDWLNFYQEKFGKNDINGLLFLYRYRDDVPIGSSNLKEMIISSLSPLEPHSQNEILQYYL
T1 sequence (P07347 1-238): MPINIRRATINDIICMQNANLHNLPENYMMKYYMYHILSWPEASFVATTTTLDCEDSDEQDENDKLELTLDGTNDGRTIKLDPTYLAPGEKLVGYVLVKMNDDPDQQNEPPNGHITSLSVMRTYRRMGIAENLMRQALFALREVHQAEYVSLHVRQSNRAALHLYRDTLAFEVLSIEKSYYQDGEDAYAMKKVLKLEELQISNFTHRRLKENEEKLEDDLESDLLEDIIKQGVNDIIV
Description: as §1, §2

| Substance | Activity (%) (mean activity ± S.D.) N^a -AT |
| --- | --- |
| SAPETQKGVIFYESHGKLEYKDIP (SAPETQKGVIFYESHGKLEYKDIP) | 168 ± 8 |
| SCPETQKGVIFYESHGKLEYKDIP (SCPETQKGVIFYESHGKLEYKDIP) | 136 ± 7 |
| SDPETQKGVIFYESHGKLEYKDIP (SDPETQKGVIFYESHGKLEYKDIP) | 171 ± 9 |
| SEPETQKGVIFYESHGKLEYKDIP (SEPETQKGVIFYESHGKLEYKDIP) | 121 ± 6 |
| SFPETQKGVIFYESHGKLEYKDIP (SFPETQKGVIFYESHGKLEYKDIP) | 118 ± 6 |
| SGPETQKGVIFYESHGKLEYKDIP (SGPETQKGVIFYESHGKLEYKDIP) | 84 ± 5 |
| SHPETQKGVIFYESHGKLEYKDIP (SHPETQKGVIFYESHGKLEYKDIP) | 125 ± 6 |
| SKPETQKGVIFYESHGKLEYKDIP (SKPETQKGVIFYESHGKLEYKDIP) | 151 ± 6 |
| SLPETQKGVIFYESHGKLEYKDIP (SLPETQKGVIFYESHGKLEYKDIP) | 126 ± 5 |
| SMPETQKGVIFYESHGKLEYKDIP (SMPETQKGVIFYESHGKLEYKDIP) | 140 ± 7 |
| SNPETQKGVIFYESHGKLEYKDIP (SNPETQKGVIFYESHGKLEYKDIP) | 116 ± 5 |
| SPPETQKGVIFYESHGKLEYKDIP (SPPETQKGVIFYESHGKLEYKDIP) | 0 |
| SQPETQKGVIFYESHGKLEYKDIP (SQPETQKGVIFYESHGKLEYKDIP) | 134 ± 7 |
| SRPETQKGVIFYESHGKLEYKDIP (SRPETQKGVIFYESHGKLEYKDIP) | 102 ± 5 |
| SSPETQKGVIFYESHGKLEYKDIP (SSPETQKGVIFYESHGKLEYKDIP) | 140 ± 6 |
| STPETQKGVIFYESHGKLEYKDIP (STPETQKGVIFYESHGKLEYKDIP) | 144 ± 8 |
| SVPETQKGVIFYESHGKLEYKDIP (SVPETQKGVIFYESHGKLEYKDIP) | 123 ± 7 |
| SWPETQKGVIFYESHGKLEYKDIP (SWPETQKGVIFYESHGKLEYKDIP) | 91 ± 5 |
| SYPETQKGVIFYESHGKLEYKDIP (SYPETQKGVIFYESHGKLEYKDIP) | 169 ± 8 |
